IC50 data for 9 molecules are collected here from patent US20240059710A1, “KRAS G12D Inhibitors” (Jacobio Pharmaceuticals Co., Ltd., priority 2020, published 2024).

One experiment deals with AsPC-1. The experiment can be described thus: Cell growth inhibition assay (AsPC-1). Format: cell-based. The following applies: AsPC-1, 6 days incubation, CellTiter-Glo. A digest of the protocol: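 AsPC-1 cells seeded at 1000 cells/well in RPMI-1640 with 10% FBS, attached overnight, then exposed to compound dilutions for 6 days at 37 °C/5% CO2. Viability read by CellTiter-Glo luminescence; IC50 from a 4-parameter logistic fit.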

Experiment [1] relates to AGS cells expressing KRAS G12D. Nature of the experiment: Phospho-ERK1/2(THR202/TYR204) HTRF assay. The experiment is classed as cell-based. Particulars: 2 hours incubation, read-out: AGS p-ERK IC50. A digest of the protocol: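 Cells seeded 40,000/well, incubated overnight, then treated with compound in F12K with 0.1% FBS for 2 h at 37 °C. Lysates assayed for phospho-ERK1/2 by HTRF after 4 h at 25 °C; IC50 from 4-parameter logistic fit.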

For a further experiment, the system named is AGS. The experiment can be described thus: Cell growth inhibition assay (AGS). Format: cell-based. Particulars: 6 days incubation, CellTiter-Glo. In outline:
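AGS cells in F12K/10% FBS plated at 500 cells/well, attached overnight, then exposed to compounds for 6 days at 37° C./5% CO2. Viability by CellTiter-Glo luminescence; IC50 from 4-parameter logistic fit.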

Experiment [2] has as its target T1, GppNp-loaded HIS-KRAS (G12D, aa 1-169) / cRAF RBD (Homo sapiens, UniProt P01116, G12D).
T1 construct: GppNp-loaded HIS-KRAS (G12D, aa 1-169)
The experiment can be described thus: GTP-KRAS and cRAF interaction assay. The experiment is classed as binding. Particulars: HTRF, 2 hours at 25° C. In outline: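 GppNp-loaded KRAS G12D (2.0 nM) preincubated 15 min with compound, then cRAF RBD (35 nM) and HTRF antibodies added for 2 h at 25° C with 100 μM GTP final. Ratios normalized to DMSO and no-KRAS controls; IC50 by 4-parameter fit.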

The target in experiment [3] is T2, GDP-loaded HIS-KRAS (G12D, aa 1-169) (Homo sapiens, UniProt P01116, G12D).
T2 construct: GDP-loaded HIS-KRAS (G12D, aa 1-169)
The experiment can be described thus: SOS1 catalyzed nucleotide exchange assay. The experiment is classed as biochemical. The following applies: SOS1 ExD, TR-FRET, 4 hours at 25° C. A digest of the protocol: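 Compound was preincubated 15 min with 1.5 nM GDP-loaded KRAS G12D (final 5 nM GDP). SOS1 ExD (aa 564-1049, 0.5 µM), 80 nM BODIPY FL GTP and anti-His Tb antibody were then added for 4 h at 25 °C. The TR-FRET 515/486 ratio was normalized between DMSO and no-KRAS wells, and IC50 came from 4-parameter fits.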

Molecules are shown by their SMILES. pIC50: −log10 of the molar value. Where two headings read alike, the source gives them in different places.

T1 sequence (P01116 1-169 isoform P01116-2 G12D): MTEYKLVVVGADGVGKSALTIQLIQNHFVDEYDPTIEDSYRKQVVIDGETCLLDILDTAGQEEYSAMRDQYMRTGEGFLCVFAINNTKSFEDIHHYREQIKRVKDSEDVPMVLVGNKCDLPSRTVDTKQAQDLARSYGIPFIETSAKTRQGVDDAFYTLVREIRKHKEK
T2 sequence (P01116 1-169 isoform P01116-2 G12D): as above

Consider `C#Cc1c(F)ccc2cc(O)cc(-c3c(Cl)cc4c(C5CC6CCC(C5)N6)nc(OC[C@@]56CCCN5C[C@H](F)C6)nc4c3F)c12` (stereo partly drawn) [Compound 100], for which the pIC50 with AsPC-1 (Homo sapiens, ASPC1, 144 h) was 7.48; in experiment [1] (Homo sapiens), 8.77; with AGS (Homo sapiens, 144 h), 8.25; in experiment [2], 7.26; in experiment [3], 8.23.

On to `C#Cc1cccc2cc(O)cc(-c3ccc4c(N5CC6CCC(C5)N6)nc(OCC5(CN6CCO[C@H](C)C6)CC5)nc4c3F)c12` [Compound 68], for which the pIC50 in the experiment on AsPC-1 (Homo sapiens, ASPC1, 144 h) is 8.11; in experiment [1] (Homo sapiens) it was 8.32; in the experiment with AGS (Homo sapiens, 144 h), 8.49; in experiment [2] it was 6.88; in experiment [3] it was 7.84.

With `C#Cc1c(F)ccc2cc(O)cc(-c3c(C4CC4)cc4c(N5CC6CCC(C5)N6)nc(OC[C@@]56CCCN5C[C@H](F)C6)nc4c3F)c12` [Compound 71], the pIC50 is 6.14 with AsPC-1 (Homo sapiens, ASPC1, 144 h); 8.03 in experiment [1] (Homo sapiens); 6.69 with AGS (Homo sapiens, 144 h); 7.14 in experiment [2]; 7.22 in experiment [3].

For the molecule `C#Cc1cccc2cc(O)cc(-c3c(F)cc4c(N5CC6CCC(C5)N6)nc(OCC5(CN6CCOCC6)CC5)nc4c3F)c12` (single isomer, unassigned) [Compound 41B], the pIC50 in the experiment on AsPC-1 was 8.42; in experiment [1], 9.00; in the experiment with AGS, 9.17; in experiment [2] it was 7.30; in experiment [3], 8.16.

Regarding `C#Cc1c(F)ccc2cc(O)cc(-c3ccc4c(N5CC6CCC(C5)N6)nc(OC[C@@]56CCCN5C[C@H](F)C6)nc4c3F)c12` [Compound 67], the pIC50 was 7.47 in the experiment on AsPC-1 (Homo sapiens, ASPC1, 144 h); 8.43 in experiment [1] (Homo sapiens); 8.16 in the experiment on AGS (Homo sapiens, 144 h); 7.69 in experiment [2]; 8.06 in experiment [3].

`C#Cc1cccc2cc(O)cc(-c3c(CCC#N)cc4c(N5CC6CCC(C5)N6)nc(OCC5(CN6CCOCC6)CC5)nc4c3F)c12` [Compound 44]: the pIC50 in the experiment with AsPC-1 (Homo sapiens, ASPC1, 144 h) is 6.73; in experiment [1] (Homo sapiens) it was 8.42; with AGS (Homo sapiens, 144 h), 7.88; in experiment [2], 7.74; in experiment [3], 8.67.

As to `C#Cc1cccc2cc(O)cc(-c3ccc4c(N5CC6CC(C5)N6)nc(OCC5(CN6CCOCC6)CC5)nc4c3F)c12` [Compound 55], the pIC50 in the experiment on AsPC-1 (Homo sapiens, ASPC1, 144 h) was 6.19; in experiment [1] (Homo sapiens) it was 7.56; in the experiment with AGS (Homo sapiens, 144 h) it was 7.11; in experiment [2] it was 6.83; in experiment [3], 7.94.

`C#Cc1cccc2cc(O)cc(-c3c(Cl)cc4c(N5CC6CCC(C5)N6)nc(OCC5(CN6CCOCC6)CC5)nc4c3F)c12` [Compound 35]: the pIC50 is 7.00 in the experiment on AsPC-1 (Homo sapiens, ASPC1, 144 h); 7.49 in experiment [1] (Homo sapiens); 8.07 with AGS (Homo sapiens, 144 h); 6.95 in experiment [2]; 7.98 in experiment [3].

Take `C#Cc1c(F)ccc2cc(O)cc(-c3ccc4c(N5CC6CCC(C5)N6)nc(OCC5(CN6CCOCC6)CC5)nc4c3F)c12` [Compound 48]: the pIC50 in the experiment with AsPC-1 (Homo sapiens, ASPC1, 144 h) is 7.70; in experiment [1] (Homo sapiens), 9.10; in the experiment with AGS (Homo sapiens, 144 h), 8.94; in experiment [2], 7.75; in experiment [3], 8.15.
